Measured values from the NIST ThermoML archive (doi:10.1016/j.jct.2016.07.029).
± gives the expanded uncertainty stated by the source.

Assay: excess molar enthalpy (molar enthalpy of mixing); xn = mol fraction of the nth substance listed
Conditions: 100 kPa, Liquid, Calvet calorimetry

[Zn] [zinc] + [Ga]
Conditions | excess molar enthalpy [kcal/mol]
722 K, x1 = 0.0966 | 0.125 ± 0.0406
722 K, x1 = 0.132 | 0.161 ± 0.0229
722 K, x1 = 0.1679 | 0.205 ± 0.0406
722 K, x1 = 0.237 | 0.272 ± 0.0406
722 K, x1 = 0.2478 | 0.255 ± 0.0229
722 K, x1 = 0.2796 | 0.304 ± 0.0406
722 K, x1 = 0.3239 | 0.337 ± 0.0406
722 K, x1 = 0.3424 | 0.323 ± 0.0232
722 K, x1 = 0.3664 | 0.357 ± 0.0406
722 K, x1 = 0.4104 | 0.377 ± 0.0406
722 K, x1 = 0.4155 | 0.361 ± 0.0232
722 K, x1 = 0.4432 | 0.385 ± 0.0406
722 K, x1 = 0.4746 | 0.378 ± 0.0232
722 K, x1 = 0.4747 | 0.393 ± 0.0406
722 K, x1 = 0.5057 | 0.402 ± 0.0406
722 K, x1 = 0.5202 | 0.377 ± 0.0232
722 K, x1 = 0.5368 | 0.404 ± 0.0406
722 K, x1 = 0.5565 | 0.378 ± 0.0232
722 K, x1 = 0.562 | 0.406 ± 0.0406
722 K, x1 = 0.5901 | 0.379 ± 0.0232
722 K, x1 = 0.6188 | 0.375 ± 0.0232
722 K, x1 = 0.6444 | 0.37 ± 0.0232
722 K, x1 = 0.6659 | 0.363 ± 0.0232
722 K, x1 = 0.6846 | 0.357 ± 0.0232
722 K, x1 = 0.761 | 0.326 ± 0.0232
722 K, x1 = 0.8068 | 0.305 ± 0.0227
722 K, x1 = 0.8495 | 0.256 ± 0.0225
722 K, x1 = 0.9004 | 0.182 ± 0.0225
722 K, x1 = 0.948 | 0.102 ± 0.0225
923 K, x1 = 0.07739 | 0.092 ± 0.0454
923 K, x1 = 0.1307 | 0.149 ± 0.0287
923 K, x1 = 0.1593 | 0.182 ± 0.0454
923 K, x1 = 0.2353 | 0.252 ± 0.0287
923 K, x1 = 0.2736 | 0.284 ± 0.0454
923 K, x1 = 0.3154 | 0.313 ± 0.0287
923 K, x1 = 0.3262 | 0.315 ± 0.0454
923 K, x1 = 0.3711 | 0.346 ± 0.0454
923 K, x1 = 0.3774 | 0.352 ± 0.0287
923 K, x1 = 0.4101 | 0.361 ± 0.0454
923 K, x1 = 0.4408 | 0.38 ± 0.0287
923 K, x1 = 0.4434 | 0.384 ± 0.0454
923 K, x1 = 0.4743 | 0.395 ± 0.0454
923 K, x1 = 0.4896 | 0.398 ± 0.0287
923 K, x1 = 0.4981 | 0.403 ± 0.0454
